Experimental data published in patent publication US11225505B2, “Antimicrobial polymyxin derivative compounds” (MONASH UNIVERSITY, priority 2015, dated 2022).
Values after ≈ are worked out from the molar mass of the structure shown. Where a SMILES comes first, the peptide text is derived from it. Bridges are numbered along the chain shown (N, C = ends). [ ]: non-standard residue; d: D form. The star is where a group is joined. X1 = O=C(c1ncc(Cl)cc1Cl)*; Dab = NCC[C@H](N)C(=O)O; Abu = CC[C@H](N)C(=O)O; Dap = NC[C@H](N)C(=O)O

Columns and labels:
[1] = test system: Acinetobacter baumannii ATCC 17978; format: cell-based; conditions: ATCC 17978
Summary of the method: (§1)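 Lipopeptide TFA salts were serially diluted in cation-adjusted Mueller-Hinton broth, inoculated with polymyxin-susceptible Gram-negative bacteria and scored for MIC according to CLSI guidance (M100-S24). Polymyxin B sulphate was included as comparator.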

[2] = test system: Acinetobacter baumannii FADDI-AB034; format: cell-based; conditions: FADDI-AB034
Summary of the method: as §1

[3] = test system: Enterobacter cloacae FADDI-EC001; format: cell-based; conditions: FADDI-EC001
Summary of the method: (§2)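 MIC; CLSI broth microdilution; cation-adjusted MH broth; test articles as TFA salts; polymyxin B control; polymyxin-susceptible isolates.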

[4] = test system: Enterobacter cloacae FADDI-EC003; format: cell-based; conditions: FADDI-EC003
Summary of the method: as §1

[5] = test system: Enterobacter cloacae FADDI-EC006; format: cell-based; conditions: FADDI-EC006
Summary of the method: as §1

[6] = test system: Klebsiella pneumoniae FADDI-KP022; format: cell-based; conditions: FADDI-KP022
Summary of the method: as §1

[7] = test system: Klebsiella pneumoniae FADDI-KP032; format: cell-based; conditions: FADDI-KP032
Summary of the method: as §1

[8] = test system: Klebsiella pneumoniae Kp BM1; format: cell-based; conditions: Kp BM1
Summary of the method: as §2

[9] = test system: Pseudomonas aeruginosa ATCC 27853; format: cell-based; conditions: ATCC 27853
Summary of the method: as §1

[10] = test system: Pseudomonas aeruginosa FADDI-PA01; format: cell-based; conditions: FADDI-
Summary of the method: as §1

[11] = test system: Pseudomonas aeruginosa FADDI-PA022; format: cell-based; conditions: FADDI-PA022
Summary of the method: as §1

[12] = test system: Pseudomonas aeruginosa FADDI-PA038; format: cell-based; conditions: FADDI-PA038
Summary of the method: as §1

[13] = test system: A. baumannii FADDI-AB030; assay: In vivo efficacy in a neutropenic mouse lung infection model; design: species or system Acinetobacter baumannii; conditions: 24 h
Experimental: The in vivo efficacy of several compounds was examined in a neutropenic mouse lung infection model against the clinical isolate A. baumannii FADDI-AB030. This Gram-negative isolate is highly multi drug-resistant as illustrated in Table 7.
FADDI-AB030 was subcultured on nutrient agar plates from the −80° C. stock. One colony of the bacterial strain was dispersed in 10-mL CAMHB and incubated overnight. On day 2, an aliquot (0.2 mL) of overnight culture suspension was dispersed in 20-mL CAMHB and incubated for 1.5-2.5 h for production of early log-phase growth bacterial culture. The bacteria in the early log-phase growth suspension were concentrated by centrifugation (3,220 g for 10 min) and re-suspended in sterile 0.9% saline for inoculation into mice. The bacterial cell concentration (colony forming unit [CFU]/mL) in saline was estimated by determining the optical density (OD) of the suspension at 600 nm, and confirmed by plating the suspension on nutrient agar plates. […]
Lung infection was produced as follows. […] Bacterial burdens in lungs were determined at 2 h after inoculation (untreated controls) and 24 h later (untreated controls and compound-treated mice). […] The bacterial colonies on the agar plate were counted and the log10 CFU/lung in each mouse was calculated (FIG. 1). […]

[14] = test system: mice; assay: Acute toxicity observed in the mouse lung infection study; format: in vivo; conditions: up to 180 mg/kg total dose (four times the polymyxin B dose)
Experimental: Lung infection was produced as follows. Mice (n=4) were anaesthetised by inhalation of 2% to 5% isoflurane in oxygen and rested in the supine position against a restraining board which was angled at 60-70° from the horizontal. Each mouse was inoculated with 25 μL of bacterial suspension in saline (˜10^6 bacterial cells in early logarithmic growth phase) sprayed directly into the trachea above the carina using a MicroSprayer® Aerosolizer (model IA-1C; Penn-Century, Philadelphia, Pa., USA). After discharge of the bacterial aerosol, mice were held upright on the restraining board for 2 min and then placed on a warm pad for recovery from anaesthesia. Treatment with polymyxin B and Compound 1, 3, 6 and 18 (intraperitoneal injection of dose-fractionated regimens across the daily dose) was initiated 2 h following inoculation. […] This was the highest dose of polymyxin B that could be safely administered without adverse effects, i.e. acute toxicity. Bacterial burdens in lungs were determined at 2 h after inoculation (untreated controls) and 24 h later (untreated controls and compound-treated mice). Animals were euthanised at 24 h by inhalation of overdose isoflurane. The skin on the chest and fore-paws of each animal was thoroughly cleansed with 70% ethanol and Betadine®. […] The bacterial colonies on the agar plate were counted and the log10 CFU/lung in each mouse was calculated (FIG. 1). […]

With `CC[C@@H]1NC(=O)[C@@H](CC(C)C)NC(=O)[C@H](CCN)NC(=O)[C@@H](NC(=O)[C@H](CN)NC(=O)[C@@H](NC(=O)[C@H](CCN)NC(=O)c2ncc(Cl)cc2Cl)[C@@H](C)O)CCNC(=O)[C@H]([C@@H](C)O)NC(=O)[C@H](CCN)NC(=O)[C@H](CCN)NC1=O` [Compound 1] (X1-[Dab]T[Dap][Dab][Dab][dL][Abu][Dab][Dab]T; lactam 4-C) the Minimum inhibitory concentration [1] was 2 µg/mL (≈ 1.72 µM), the Minimum inhibitory concentration [2] was 2 µg/mL (≈ 1.72 µM) and the Minimum inhibitory concentration [3] was <0.125 µg/mL. For the same compound, the Minimum inhibitory concentration [4] was 2 µg/mL (≈ 1.72 µM), the Minimum inhibitory concentration [5] was 0.5 µg/mL (≈ 0.431 µM) and the Minimum inhibitory concentration [6] was <0.125 µg/mL. For the same compound, the Minimum inhibitory concentration [7] was 0.5 µg/mL (≈ 0.431 µM), the Minimum inhibitory concentration [8] was 0.25 µg/mL (≈ 0.215 µM) and the Minimum inhibitory concentration [9] was 0.5 µg/mL (≈ 0.431 µM). It also gave a Minimum inhibitory concentration [10] of 0.5 µg/mL (≈ 0.431 µM), a Minimum inhibitory concentration [11] of 1 µg/mL (≈ 0.861 µM) and a Minimum inhibitory concentration [12] of 1 µg/mL (≈ 0.861 µM). For the same compound, the “in vivo antibacterial efficacy (bacterial burden in lung, FIG. 1) compared with polymyxin B at the same dose” value ([13]; 45 mg/kg total, neutropenic mice) was “improved in vivo antibacterial efficacy”, the “bacterial cells in the lung (FIG. 2)” value ([13]; total doses of 90 and 180 mg/kg) was “no longer detectable in the lung” and the acute toxicity [14] was “without any observable acute toxicity”.
